Reference: ChEMBL document CHEMBL3739389, “2-Pyridylquinoloneantimalarials with improved antimalarial activity and physicochemical properties” (Medchemcomm, 2015)
Values after ≈ are worked out from the molar mass of the structure shown.

Columns and labels:
[1] = Kinetic solubility of the compound in fixanal buffer at pH 7.4 at 200 uM; type: physicochemical; settings: read-out: Kinetic_solubility
Plasmodium falciparum [2] = test: Antimalarial activity against drug resistant Plasmodium falciparum TM90C2B infected in human erythrocytes assessed as growth inhibition after 48 hrs by SYBR Green 1 staining-based fluorescence assay; type: functional, organism-based
[3] = Kinetic solubility of the compound in phosphate buffer at pH 1 at 200 uM; type: physicochemical; settings: read-out: Kinetic_solubility
Plasmodium falciparum [4] = test: Antimalarial activity against drug resistant Plasmodium falciparum W2 infected in human erythrocytes assessed as growth inhibition after 48 hrs by SYBR Green 1 staining-based fluorescence assay; type: functional, organism-based; settings: W2, 48 h
[5] = Intrinsic clearance in human liver microsomes at 3 uM assessed per mg of protein up to 45 mins in presence of NADPH by LC-MS/MS analysis; type: ADME; settings: read-out: CLH
Plasmodium falciparum [6] = test: Antimalarial activity against Plasmodium falciparum 3D7 infected in human erythrocytes assessed as growth inhibition after 48 hrs by SYBR Green 1 staining-based fluorescence assay; type: functional, organism-based; settings: 3D7, 48 h
cytochrome b-c1 complex [7] = test: Inhibition of cytochrome b-c1 complex bovine heart mitochondrial membranes assessed as reduction in cytochrome c reductase activity using decylubiquinol as substrate at 100 uM by UV-visible spectrophotometric analysis; design: species or system Bos taurus; settings: cattle, probe decylubiquinol
[8] = Intrinsic clearance in rat hepatocytes at 3 uM assessed per 10^6 cells up to 45 mins […] by LC-MS/MS analysis; type: ADME, cell-based, Hepatocyte; settings: read-out: CLH
cytochrome b-c1 complex [9] = test: Inhibition of cytochrome b-c1 complex bovine heart mitochondrial membranes assessed as reduction in cytochrome c reductase activity using decylubiquinol as substrate at 1 uM by UV-visible spectrophotometric analysis; design: species or system Bos taurus; settings: cattle, probe decylubiquinol

| Structure (SMILES) | solubility kinetic at 200 µM [1] [µM] | solubility kinetic at 200 µM [3] [µM] | IC50 (Plasmodium falciparum [6]) [µM] | also measured |
| --- | --- | --- | --- | --- |
| Cc1c(-c2ccc(-c3ccc(OC(F)(F)F)cc3)nc2)[nH]c2ccccc2c1=O | < 1 | 3.2 (≈ 1.27 µg/mL) |  | IC50 (Plasmodium falciparum [2]): 0.156 µM; IC50 (Plasmodium falciparum [4]): 0.048 µM; microsomal CLint at 3 µM [5]: 20.6 µL/min/mg |
| COc1cccc2[nH]c(-c3ccc(-c4ccc(OC(F)(F)F)cc4)nc3)c(C)c(=O)c12 |  |  | > 1 |  |
| COc1ccc2[nH]c(-c3ccc(-c4ccc(OC(F)(F)F)cc4)nc3)c(C)c(=O)c2c1 |  |  | > 1 |  |
| COc1cccc2c(=O)c(C)c(-c3ccc(-c4ccc(OC(F)(F)F)cc4)nc3)[nH]c12 |  |  | > 1 |  |
| Cc1c(-c2ccc(-c3ccc(OC(F)(F)F)cc3)nc2)[nH]c2ccc(O)cc2c1=O |  |  | 0.326 |  |
| Cc1c(-c2ccc(-c3ccc(OC(F)(F)F)cc3)nc2)[nH]c2c(O)cccc2c1=O |  |  | > 1 |  |
| COc1ccc2c(=O)c(C)c(-c3ccc(-c4ccc(Cl)c(Cl)c4)nc3)[nH]c2c1 |  |  | 0.2 |  |
| COc1ccc2c(=O)c(C)c(-c3cncc(-c4ccc(Cl)c(Cl)c4)c3)[nH]c2c1 | 14 (≈ 5.76 µg/mL) | 15 (≈ 6.17 µg/mL) | 0.018 | inhibition at 100 µM (cytochrome b-c1 complex [7]): 13%; hepatocyte CLint at 3 µM [8]: 4.9 µL/min/1e6 cells; inhibition at 1 µM (cytochrome b-c1 complex [9]): 20%; microsomal CLint at 3 µM [5]: 14 µL/min/mg |
| Cc1c(-c2cncc(-c3ccc(OC(F)(F)F)cc3)c2)[nH]c2ccccc2c1=O | 3.6 (≈ 1.43 µg/mL) | 140 (≈ 55.5 µg/mL) | 0.041 | inhibition at 100 µM (cytochrome b-c1 complex [7]): 20%; hepatocyte CLint at 3 µM [8]: 1.8 µL/min/1e6 cells; inhibition at 1 µM (cytochrome b-c1 complex [9]): 25%; microsomal CLint at 3 µM [5]: 12.5 µL/min/mg |
| Cc1c(-c2cccc(-c3ccc(OC(F)(F)F)cc3)n2)[nH]c2ccccc2c1=O |  |  | 0.39 |  |
| COc1ccc2c(=O)c(C)c(-c3ccc(-c4ccc(OC(F)(F)F)cc4)nc3)[nH]c2c1 | < 1 | 2.6 (≈ 1.11 µg/mL) | 0.014 | inhibition at 100 µM (cytochrome b-c1 complex [7]): 55%; inhibition at 1 µM (cytochrome b-c1 complex [9]): 98% |
| COc1ccc2c(=O)c(C)c(-c3ccnc(-c4ccc(OC(F)(F)F)cc4)c3)[nH]c2c1 | < 1 | 120 (≈ 51.2 µg/mL) | 0.012 | inhibition at 100 µM (cytochrome b-c1 complex [7]): 63%; IC50 (Plasmodium falciparum [2]): 0.007 µM; IC50 (Plasmodium falciparum [4]): 0.0042 µM; inhibition at 1 µM (cytochrome b-c1 complex [9]): 85% |
| COc1ccc2c(=O)c(C)c(-c3cc(-c4ccc(OC(F)(F)F)cc4)ccn3)[nH]c2c1 |  |  | 0.15 |  |
| COc1ccc2c(=O)c(C)c(-c3ccc(-c4ccc(OC(F)(F)F)cc4)cn3)[nH]c2c1 |  |  | > 1 |  |
| Cc1c(-c2ccc(-c3ccc(OC(F)(F)F)cc3)cn2)[nH]c2ccccc2c1=O |  |  | > 1 |  |
| COc1ccc2c(=O)c(C)c(-c3cccc(-c4ccc(OC(F)(F)F)cc4)n3)[nH]c2c1 |  |  | 0.149 |  |
| O=c1c2c([nH]c3ccccc13)CN(Cc1ccc(OC(F)(F)F)cc1)C2 |  |  | 0.2 |  |
| O=c1c2c([nH]c3ccccc13)CN(Cc1ccc(Cl)c(Cl)c1)C2 |  |  | 0.07 |  |
| Cc1c(-c2cncc(-c3ccc(Cl)c(Cl)c3)c2)[nH]c2ccccc2c1=O |  |  | 0.04 | hepatocyte CLint at 3 µM [8]: 9.9 µL/min/1e6 cells; microsomal CLint at 3 µM [5]: 5.6 µL/min/mg |
| COc1ccc2c(=O)c(C)c(-c3cncc(-c4ccc(OC(F)(F)F)cc4)c3)[nH]c2c1 | < 1 | 7.8 (≈ 3.33 µg/mL) | 0.012 | inhibition at 100 µM (cytochrome b-c1 complex [7]): 19%; hepatocyte CLint at 3 µM [8]: 1.2 µL/min/1e6 cells; IC50 (Plasmodium falciparum [2]): 0.0072 µM; IC50 (Plasmodium falciparum [4]): 0.004 µM; inhibition at 1 µM (cytochrome b-c1 complex [9]): 81%; microsomal CLint at 3 µM [5]: 25.9 µL/min/mg |
| Cc1c(-c2ccnc(-c3ccc(OC(F)(F)F)cc3)c2)[nH]c2ccccc2c1=O | 2.1 (≈ 0.832 µg/mL) | 79 (≈ 31.3 µg/mL) | 0.021 | inhibition at 100 µM (cytochrome b-c1 complex [7]): 52%; hepatocyte CLint at 3 µM [8]: 2.5 µL/min/1e6 cells; inhibition at 1 µM (cytochrome b-c1 complex [9]): 81%; microsomal CLint at 3 µM [5]: 7.7 µL/min/mg |
| O=C1C(O)=C([C@H]2CC[C@H](c3ccc(Cl)cc3)CC2)C(=O)c2ccccc21 [ATOVAQUONE] |  |  |  | IC50 (Plasmodium falciparum [2]): 9.91 µM; IC50 (Plasmodium falciparum [4]): 0.0003 µM |
